Assay results: patent US20030078518A1, “Method of treating the skin of a subject” (priority 2001, published 2003)

Assays:
Type in all cases: in vivo, human
IL-1A = assay: Study 2: IL-1A ELISA in interstitial fluid, effect of supplementation; conditions: for Concentration of IL-1A (log), MEAN: Supplement Yes
Description: (§1) The laser made four pores at each collection site.
(§2) The other skin analytes were measured in Study 2 using standard ELISA kits: MMP-1 (ELISA Cat # QIA55, Oncogene Research Products, Cambridge Mass.); Total IgE (ELISA Cat # RE59061, IBL, Hamburg, Germany distributed by KMI Diagnostics); Non Extraction IGF-1 (ELISA Cat # DSL-10-2800, Diagnostics Systems Laboratories, Webster Tex.); IL-1 RA (ELISA Cat # DRA00, R&D Systems, Minneapolis, Minn.); IL-1A (ELISA Cat # EH2IL1A, Pierce/Endogen, Rockford, Ill.).

MMP-1 = assay: Study 2: MMP-1 ELISA in interstitial fluid, effect of supplementation; conditions: for Concentration of MMP-1 (log), MEAN: Supplement Yes
Description: as §1, §2

IL-1 RA = assay: Study 2: IL-1 RA ELISA in interstitial fluid, effect of supplementation; conditions: for Concentration of IL-1 RA (log), MEAN: Supplement Yes
Description: as §1, §2

IGF-1 = assay: Study 2: IGF-1 ELISA in interstitial fluid, effect of supplementation; conditions: Supplement Yes
Description: as §1, §2

IgE = assay: Study 2: Total IgE ELISA in interstitial fluid, effect of supplementation; conditions: for Concentration of IgE (log), MEAN: Supplement Yes
Description: as §1, §2

Q: What does the source list for `O=C1O[C@H]([C@@H](O)CO)C(O)=C1O` [Vitamin C]?
A: Effect of vitamin C supplement on concentration of IL-1A in ISF (IL-1A): significantly increased; Concentration of IL-1A (log), MEAN (IL-1A; sun-exposed site ISF): 120.24; Concentration of IL-1A (log), MEAN (IL-1A; sun-protected site ISF): 191.5; Effect of vitamin C supplement on concentration of MMP-1 in ISF (MMP-1): significantly increased; Concentration of MMP-1 (log), MEAN (MMP-1; sun-exposed site ISF): 0.64; Concentration of MMP-1 (log), MEAN (MMP-1; sun-protected site ISF): 0.91; Effect of vitamin C supplement on concentration of IL-1 RA in ISF (IL-1 RA): significantly increased; Concentration of IL-1 RA (log), MEAN (IL-1 RA; sun-exposed site ISF): 10140; Concentration of IL-1 RA (log), MEAN (IL-1 RA; sun-protected site ISF): 9492; Concentration of IGF-1, MEAN (IGF-1; sun-exposed site ISF): 76.83; Concentration of IGF-1, MEAN (IGF-1; sun-protected site ISF): 97.78; Effect of vitamin C supplement on concentration of IgE in ISF (IgE): significantly increased; Concentration of IgE (log), MEAN (IgE; sun-exposed site ISF): 4.94; Concentration of IgE (log), MEAN (IgE; sun-protected site ISF): 18.50
